Consider three compounds from patent US20100254940A1, “Compositions and Methods for Regulating an Immune Response in a Subject” (INNATE PHARMA, S.A., priority 2002, published 2010).

SMILES strings stand for the structures.

The test system of test [1] is γδ T cell. The experiment in a line: In vitro TNFα release assay, γδ T cell amplification from human PBMCs (in the presence of rhIL2). The test is classed as cell-based. Here is the method: The in vitro biological activity of γδ T cell amplification from human PBMCs (in the presence of rhIL2) was assessed using a TNFα release assay.
Cytokine secretion and cytolytic activity can be assessed using any appropriate in vitro assay, or those provided in the examples herein. For example, cytokine secretion can be determined according to the methods described in Espinosa et al. (J. Biol. Chem., 2001, Vol. 276, Issue 21, 18337-18344), describing measurement of TNF-α release in a bioassay using TNF-α-sensitive cells. Briefly, 10^4 γδT cells/well were incubated with stimulus plus 25 units of IL2/well in 100 μl of culture medium during 24 h at 37° C. Then, 50 μl of supernatant were added to 50 μl of WEHI cells plated at 3×10^4 cells/well in culture medium plus actinomycin D (2 μg/ml) and LiCl (40 mM) and incubated for 20 h at 37° C. Viability of the TNF-α-sensitive cells and measured with a 3-(4,5-dimethylthiazol-2-yl)-2,5-diphenyltetrazolium bromide assay. 50 μl of 3-(4,5-dimethylthiazol-2-yl)-2,5-diphenyltetrazolium bromide (Sigma; 2.5 mg/ml in phosphate-buffered saline) per well were added, and after 4 h of incubation at 37° C., 50 μl of solubilization buffer (20% SDS, 66% dimethyl formamide, pH 4.7) were added, and absorbance (570 nm) was measured. Levels of TNF-α release were then calculated from a standard curve obtained using purified human rTNF-α (PeproTech, Inc., Rocky Hill, N.J.). Interferon-γ released by activated T cells was measured by a sandwich enzyme-linked immunosorbent assay. 5×10^4 γδT cells/well were incubated with stimulus plus 25 units of IL2/well in 100 μl of culture medium during 24 h at 37° C. Then, 50 μl of supernatant were harvested for enzyme-linked immunosorbent assay using mouse monoclonal antibodies (BIOSOURCE, Camarillo, Calif.). […]
BrHPP and HDMAPP bioactivity were compared using in vitro and in vivo assays. The in vitro biological activity of γδ T cell amplification from human PBMCs (in the presence of rhIL2) was assessed using a TNFα release assay.

Test [2] deals with γδ T cell. Nature of the test: γδ T cell amplification from human PBMCs, counting γδ T cell using flow cytometry (given as in vivo EC50). The test is classed as cell-based. The note with it: for EC50: γδ T cell amplification from human PBMCs, flow cytometry count. Here is the method: The biological activity of γδ T cell amplification from human PBMCs was assessed by counting γδ T cell using flow cytometry.
In vitro proliferation assays and in vitro TNFα release assay are performed essentially as described in Example 3.
On the technique in general: A flow cytometer gives signals particle by particle.

In test [3] the test system is γδ T cells. The experiment in a line: In vivo γδ T cell amplification after successive i.v. HDMAPP/IL2 injections in cynomolgus monkeys. Further details: species or system cynomolgus monkeys (M. fascicularis). Particulars: day 5. The protocol:
Eight purpose bred healthy male cynomolgus monkeys (M. fascicularis). At the beginning of the study, body weights ranged from 3.5 to 4 kg and ages from 37 to 41 months.
Animals were anaesthetised with intra-muscular injection of 6 mg/kg Zoletil™ 100 (Tiletamine-Zolazepam, Virbac, Carros, France) before any perfusion.
HDMAPP was administered i.v. to male cynomolgus monkeys by 30-minute perfusions in a total volume of 50 ml with Ringer Lactate as vehicle. […]
The animals were co-treated subcutaneously with 0.6M IU IL2 in sterile water per day for 5 days.
Blood was drawn pre-dose and at day 4, 5, 7, 11 and 14 after HDMAPP perfusion for flow cytometry analysis of blood cellular populations of interest.
Peripheral γδ lymphocytes were analysed by flow cytometry on total monkey blood, after triple staining with anti-Vgamma9FITC, anti-CD3PE and anti-CD69PC5 antibodies (Vgamma9-FITC: 7B6 clone, produced, purified and FITC-coupled at Innate Pharma; CD3-PE: SP34 clone, BD Biosciences Pharmingen, Le Pont de Claix, France; CD69PC5: FN50 clone, Immunotech-Beckman-Coulter, Marseilles, France).
Briefly, 50 μl monkey blood was incubated 15 min at RT with 10 μl anti-gamma9-FITC, 5 μl anti-CD3-PE and 5 μl anti-CD69PC5 antibodies. Antibodies were washed with 3 ml 1×PBS, centrifuged for 4 min at 1300 rpm at RT and supernatant was discarded. Red cells were lysed with the OptiLyse C reagent (Immunotech-Beckman-Coulter, Marseilles, France) according to the manufacturer's instructions. At the final step, stained white blood cells were recovered by centrifugation and resuspended in 300 μl 1×PBS+0.2% PFA. Immediately before analysis, 50 μl calibrated Flow Count™ Fluorospheres (Immunotech-Beckman-Coulter, Marseilles, France) were added to the cells for absolute number counting of the populations of interest.

Another test has as its system Vγ9/Vδ2 T cells. The note with it: reported; cited from earlier work.
In test [4] the test system is γδ T cells. Particulars: Wilhelm et al., 2003; cited from earlier work.

As to `C/C(=C\COP(=O)(O)OP(=O)(O)O)CO` [HDMAPP, (E)-4-hydroxy-3-methyl-2-butenyl pyrophosphate], the difference in potency in the test with γδ T cell [1] (HDMAPP vs BrHPP, in vitro EC50) is listed as around 50 fold; with γδ T cell [2] (HDMAPP vs BrHPP), around 2 log. The EC50 was around 0.6 nM in the test with γδ T cell [1] (T-cell, TNFα release assay, human PBMCs, rhIL2); around 0.005 nM in the test on γδ T cell [2]; around 0.1 nM in the test with Vγ9/Vδ2 T cells. Also, the “γδ cells among CD3+” value in the test on γδ T cells [3] (first of 4 successive injections, 5 weeks apart, 2.6 mg/kg) is “approx. 60%”; in the test on γδ T cells [3] (fourth of 4 successive injections), around 40%; in the test with γδ T cells [3] (second of 4 successive injections), around 55%; with γδ T cells [3] (third of 4 successive injections), “approx. 60%”.

`O=P(O)(O)C(O)(Cn1ccnc1)P(=O)(O)O` [Zoledronate®, reference compound] displayed a concentration for a half-maximal effect (EC50) with γδ T cell [2] of around 1000 nM.

As for `NCCC(O)(P(=O)(O)O)P(=O)(O)O` [pamidronate], the “increase in γδ T cell count” value in the test on γδ T cells [4] is listed as at most 2 fold.

What is called EC50 is the concentration giving half of the maximal effect.
